Reference: PMC4523340 (British Journal of Pharmacology, 2015)
Counter-ions that a name gives are not always drawn.

How the values were obtained:
5-HT7(b) receptor [1] = molecular target: T1, 5-HT7(b) receptor (Homo sapiens, UniProt P34969)
5-HT7(d) receptor = 5-HT7(d) receptor (Homo sapiens, UniProt P34969); experiment: saturation radioligand binding, membranes; conditions: read-out: [^3H]-mesulergine / Kd; labelled compound; stable HEK293
5-HT7(b) receptor [2] = molecular target: T1, 5-HT7(b) receptor; experiment: saturation radioligand binding, membranes; conditions: read-out: [^3H]-mesulergine / Kd; labelled compound; stable HEK293
5-HT7(a) receptor = 5-HT7(a) receptor (Homo sapiens, UniProt P34969); experiment: saturation radioligand binding, membranes; conditions: read-out: [^3H]-mesulergine / Kd; labelled compound; stable HEK293
Chain of 5-HT7(a) receptor (P34969 1-445 isoform P34969-2): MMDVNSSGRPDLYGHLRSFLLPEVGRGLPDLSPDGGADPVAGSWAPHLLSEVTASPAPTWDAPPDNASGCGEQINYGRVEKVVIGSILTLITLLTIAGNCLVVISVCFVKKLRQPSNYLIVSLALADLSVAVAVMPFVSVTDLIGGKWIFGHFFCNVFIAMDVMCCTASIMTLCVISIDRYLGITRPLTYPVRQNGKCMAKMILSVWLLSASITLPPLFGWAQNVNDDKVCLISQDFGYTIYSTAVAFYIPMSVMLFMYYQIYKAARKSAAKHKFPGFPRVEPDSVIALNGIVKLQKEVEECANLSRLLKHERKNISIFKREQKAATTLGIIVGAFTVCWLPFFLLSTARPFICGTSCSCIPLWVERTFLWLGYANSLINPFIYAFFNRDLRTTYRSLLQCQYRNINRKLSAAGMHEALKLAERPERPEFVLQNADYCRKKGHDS

T1 sequence (P34969 1-432 limits assumed): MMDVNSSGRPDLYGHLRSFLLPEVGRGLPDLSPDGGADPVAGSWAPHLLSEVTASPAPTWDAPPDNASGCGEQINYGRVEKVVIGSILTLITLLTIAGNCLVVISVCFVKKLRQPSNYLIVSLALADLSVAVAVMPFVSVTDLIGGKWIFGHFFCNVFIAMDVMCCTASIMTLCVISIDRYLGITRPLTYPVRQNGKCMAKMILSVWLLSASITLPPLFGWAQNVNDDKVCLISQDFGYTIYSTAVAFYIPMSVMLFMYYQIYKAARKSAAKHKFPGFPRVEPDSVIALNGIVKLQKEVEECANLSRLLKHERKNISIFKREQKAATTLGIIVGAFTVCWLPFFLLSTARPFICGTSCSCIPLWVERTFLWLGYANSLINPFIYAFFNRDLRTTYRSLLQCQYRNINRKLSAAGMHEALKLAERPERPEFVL
Chain of 5-HT7(d) receptor (P34969 whole entry): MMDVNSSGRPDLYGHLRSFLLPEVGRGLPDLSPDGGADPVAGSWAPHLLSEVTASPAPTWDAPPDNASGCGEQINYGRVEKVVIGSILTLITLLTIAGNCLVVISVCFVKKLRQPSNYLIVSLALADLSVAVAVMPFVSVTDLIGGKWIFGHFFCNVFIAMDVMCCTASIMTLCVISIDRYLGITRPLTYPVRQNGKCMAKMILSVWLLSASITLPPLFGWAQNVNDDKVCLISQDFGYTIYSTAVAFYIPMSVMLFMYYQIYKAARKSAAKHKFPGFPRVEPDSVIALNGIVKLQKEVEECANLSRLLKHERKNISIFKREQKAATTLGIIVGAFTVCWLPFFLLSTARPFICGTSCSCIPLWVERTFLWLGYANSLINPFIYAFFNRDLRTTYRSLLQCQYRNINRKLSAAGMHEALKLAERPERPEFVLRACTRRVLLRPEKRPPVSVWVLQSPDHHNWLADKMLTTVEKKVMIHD

Q: How did the pEC50 (5-HT7(b) receptor [1]) turn out when `CN1C[C@@H](NS(=O)(=O)N(C)C)C[C@@H]2c3cccc4c3c(cn4C)C[C@H]21` [mesulergine, N′-[(8a)-1,6-dimethylergolin-8-yl]-N,N-dimethylsulfamide hydrochloride] was run?
A: 8.7 ± 0.1

Q: What about the Kd (5-HT7(d) receptor) of the same compound?
A: 9.6 ± 1.2 nM

Q: What about the Kd (5-HT7(b) receptor [2]) of the same compound?
A: 6.2 ± 0.7 nM

Q: And the Kd (5-HT7(a) receptor)?
A: 9.2 ± 1.6 nM
